{"source": "paper PMC7472185", "about": "(Viruses, 2020)", "key": {"HBV RT": {"target": "HBV RT (Hepatitis B virus genotype C subtype adr, UniProt P12933)", "sequence (P12933 347-690)": "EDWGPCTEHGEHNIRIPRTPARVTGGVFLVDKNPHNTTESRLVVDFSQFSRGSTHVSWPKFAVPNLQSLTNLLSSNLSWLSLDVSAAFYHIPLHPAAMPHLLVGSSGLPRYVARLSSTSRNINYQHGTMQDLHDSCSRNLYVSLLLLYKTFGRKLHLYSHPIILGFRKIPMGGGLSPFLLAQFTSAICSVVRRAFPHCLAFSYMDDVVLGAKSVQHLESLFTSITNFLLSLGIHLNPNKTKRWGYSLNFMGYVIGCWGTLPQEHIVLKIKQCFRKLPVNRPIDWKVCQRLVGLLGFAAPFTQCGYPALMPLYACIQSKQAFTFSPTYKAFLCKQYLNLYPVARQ", "test": "T/P and substrate binding assay (cell-free), poly(rA)/oligo(dT) with DIG-dUTP", "details": "for Inhibitory effect on T/P and substrate binding activity of HBV RT: poly(rA)/oligo(dT); for inhibition at 10 µM / inhibition at 100 µM: read-out: % Inhibition to HBV RT of cell-free assay"}, "HBV [1]": {"tested_on": "HBV", "test": "microbe, parasite or virus in culture", "format": "cell-based, Hepatitis B virus", "details": "HB611 cells, read-out: IC50 for extracellular HBV production"}, "HBeAg [2]": {"tested_on": "HBeAg", "test": "HBeAg ELISA of supernatant, HB611 cells", "format": "cell-based, Hepatitis B virus", "details": "suramin, KB-R7943, compound 3 up to 50, 20, and 25 µM, respectively"}, "[3]": {"tested_on": "NTCP-expressing HepG2 (NTCP/G2) cells", "test": "Cytotoxicity, CellTiter-Glo, NTCP/G2 cells", "format": "cell-based", "details": "day 9"}, "HBsAg": {"tested_on": "HBsAg", "test": "HBsAg ELISA of supernatant, HB611 cells", "format": "cell-based, Hepatitis B virus", "details": "suramin, KB-R7943, compound 3 up to 50, 20, and 25 µM, respectively"}, "HBV [4]": {"tested_on": "HBV", "test": "Intracellular core-associated HBV DNA by qPCR, HB611 cells", "format": "cell-based, Hepatitis B virus"}, "HBeAg [5]": {"tested_on": "HBeAg", "test": "HBeAg ELISA of supernatant, HBV infection system NTCP/G2", "format": "cell-based, Hepatitis B virus", "details": "NTCP/G2, day 9"}, "HBV [6]": {"tested_on": "HBV", "test": "Intracellular core-associated HBV DNA by qPCR, NTCP/G2 infection system", "format": "cell-based, Hepatitis B virus"}, "HB611 cells": {"tested_on": "HB611 cells", "test": "Cytotoxicity, CellTiter-Glo, HB611 cells", "format": "cell-based, human"}, "HBV cccDNA": {"tested_on": "HBV cccDNA", "test": "cccDNA by qPCR (Hirt DNA), NTCP/G2 infection system", "format": "cell-based, Hepatitis B virus", "details": "NTCP/G2 cells"}, "[7]": {"test": "Cytotoxicity, CellTiter-Glo, NTCP/G2 cells", "format": "cell-based", "details": "human, NTCP-expressing HepG2 (NTCP/G2) cells, day 9"}, "[8]": {"test": "Cytotoxicity, CellTiter-Glo, HB611 cells", "format": "cell-based, human", "details": "human; HB611 cells, day 9"}}, "note": "Read-outs that look alike come from different tables or passages of the source."}
{"smiles": "Cc1cc2c(C(C)C)c(O)c(O)c(C=O)c2c(O)c1-c1c(C)cc2c(C(C)C)c(O)c(O)c(C=O)c2c1O", "note": "[Gossypol]", "values": [{"measurement": "Inhibitory effect on T/P and substrate binding activity of HBV RT", "setting": "HBV RT; 10 µM compound", "result": "showed the higher inhibitory effects"}, {"measurement": "inhibition at 10 µM", "setting": "HBV RT; 10 µM compound", "result": 92, "unit": "%"}, {"measurement": "inhibition at 100 µM", "setting": "HBV RT; 100 µM compound", "result": 97, "unit": "%"}]}
{"smiles": "N=C(N)SCCc1ccc(OCc2ccc([N+](=O)[O-])cc2)cc1", "note": "[KB-R7943]", "values": [{"measurement": "IC50", "setting": "HBV [1]", "result": 3.7, "unit": "µM"}, {"measurement": "HBeAg secretion", "setting": "HBeAg [2]", "result": "no changes"}, {"measurement": "CC50", "setting": "[3]", "result": 37.4, "unit": "µM"}, {"measurement": "HBsAg secretion", "setting": "HBsAg", "result": "no changes"}, {"measurement": "Core-associated DNA", "setting": "HBV [4]; HB611 cells", "result": "modest decrease"}, {"measurement": "HBeAg expression in the culture supernatant", "setting": "HBeAg [5]", "result": "did not change"}, {"measurement": "Inhibitory effect on T/P and substrate binding activity of HBV RT", "setting": "HBV RT; 10 µM compound", "result": "showed the higher inhibitory effects"}, {"measurement": "putative IC50, core-associated HBV DNA", "setting": "HBV [6]; NTCP/G2, day 9", "result": 7.37, "unit": "µM"}, {"measurement": "CC50", "setting": "HB611 cells", "result": 41.9, "unit": "µM"}]}
{"smiles": "O=C(Nc1cccc(C(=O)Nc2ccc(S(=O)(=O)O)c3cc(S(=O)(=O)O)cc(S(=O)(=O)O)c23)c1)Nc1cccc(C(=O)Nc2ccc(S(=O)(=O)O)c3cc(S(=O)(=O)O)cc(S(=O)(=O)O)c23)c1", "note": "[NF023]", "values": [{"measurement": "% Inhibition to HBV RT of cell-free assay", "setting": "HBV RT; 10 µM compound", "result": 26, "unit": "%"}, {"measurement": "% Inhibition to HBV RT of cell-free assay", "setting": "HBV RT; 100 µM compound", "result": 96, "unit": "%"}]}
{"smiles": "Nc1c(S(=O)(=O)O)cc(Nc2ccc(Nc3nc(Cl)nc(Nc4cccc(S(=O)(=O)O)c4)n3)c(S(=O)(=O)O)c2)c2c1C(=O)c1ccccc1C2=O", "note": "[Reactive blue 2]", "values": [{"measurement": "inhibition at 10 µM", "setting": "HBV RT; 10 µM compound", "result": 53, "unit": "%"}, {"measurement": "inhibition at 100 µM", "setting": "HBV RT; 100 µM compound", "result": 100, "unit": "%"}]}
{"smiles": "CC(=O)c1c(O)c(C)c(O)c(Cc2c(O)c3c(c(C(=O)/C=C/c4ccccc4)c2O)OC(C)(C)C=C3)c1O", "note": "[Rottlerin]", "values": [{"measurement": "inhibition at 10 µM", "setting": "HBV RT", "result": 35, "unit": "%"}, {"measurement": "inhibition at 100 µM", "setting": "HBV RT", "result": 98, "unit": "%"}]}
{"smiles": "Cc1ccc(C(=O)Nc2ccc(S(=O)(=O)O)c3cc(S(=O)(=O)O)cc(S(=O)(=O)O)c23)cc1NC(=O)c1cccc(NC(=O)Nc2cccc(C(=O)Nc3cc(C(=O)Nc4ccc(S(=O)(=O)O)c5cc(S(=O)(=O)O)cc(S(=O)(=O)O)c45)ccc3C)c2)c1", "note": "[Suramin]", "values": [{"measurement": "IC50", "setting": "HBV [1]; Hepatitis B virus", "result": 16.8, "unit": "µM"}, {"measurement": "cccDNA levels", "setting": "HBV cccDNA", "result": "reduced"}, {"measurement": "HBeAg secretion", "setting": "HBeAg [2]", "result": "no changes"}, {"measurement": "CC50 at 9 days", "setting": "[7]", "result": "> 200", "unit": "µM"}, {"measurement": "HBsAg secretion", "setting": "HBsAg", "result": "no changes"}, {"measurement": "IC50", "setting": "HBV [4]; Hepatitis B virus, HB611, read-out: IC50 for core-associated DNA", "result": 26.4, "unit": "µM"}, {"measurement": "HBeAg expression in the culture supernatant", "setting": "HBeAg [5]", "result": "reduced"}, {"measurement": "Inhibitory effect on T/P and substrate binding activity of HBV RT", "setting": "HBV RT; 10 µM compound", "result": "showed the higher inhibitory effects"}, {"measurement": "inhibition at 10 µM", "setting": "HBV RT; 10 µM compound", "result": 69, "unit": "%"}, {"measurement": "inhibition at 100 µM", "setting": "HBV RT; 100 µM compound", "result": 97, "unit": "%"}, {"measurement": "IC50", "setting": "HBV [6]; Hepatitis B virus, 216 h, read-out: putative IC50, core-associated HBV DNA", "result": 0.27, "unit": "µM"}, {"measurement": "CC50 at 9 days", "setting": "[8]", "result": 168, "unit": "µM"}]}
{"smiles": "C=CC1=C(C)c2cc3[nH]c(cc4nc(cc5[nH]c(cc1n2)c(C)c5CCC(=O)O)C(CCC(=O)O)=C4C)c(C)c3C=C", "note": "[protoporphyrin IX disodium]", "values": [{"measurement": "Inhibitory effect on T/P and substrate binding activity of HBV RT", "setting": "HBV RT; 10 µM compound", "result": "showed the higher inhibitory effects"}]}
